Experimental data reported in patent publication US20260041667A1 (priority 2021, published 2026).

Legend:
[1] = target: hERG potassium channel current (IKr) (Homo sapiens, UniProt Q12809); conditions: Phase 1, 30 μM in protein free perfusate, n=3
Source text: This assay is employed as a screen to assess potential risks for QT interval prolongation.

Beagle dogs = experiment: 14-day repeat-dose intranasal toxicity and toxicokinetic study in dogs (Study 62959); assay type: in vivo; conditions: dog
Method: Assessments of mortality, clinical signs, olfactory reflex, body weights, food consumption, ophthalmology, and electrocardiograms were performed.

Sprague Dawley rats = experiment: 14-day repeat-dose intranasal toxicity and toxicokinetic study in rats (Study 700041); conditions: rat
[2] = intranasal 0.4 mg/kg/day, Day 1, Female
[3] = intranasal 0.4 mg/kg/day, Day 1, Male
[4] = intranasal 0.4 mg/kg/day, Day 14, Female
[5] = intranasal 0.4 mg/kg/day, Day 14, Male
[6] = intranasal 0.8 mg/kg/day, Day 1, Male
[7] = intranasal 0.8 mg/kg/day, Day 14, Male
[8] = intranasal 5 mg/kg/day, Day 1, Female
[9] = intranasal 5 mg/kg/day, Day 1, Male
[10] = intranasal 5 mg/kg/day, Day 14, Female
[11] = intranasal 5 mg/kg/day, Day 14, Male
[12] = intranasal 20 mg/kg/day, Day 1, Female
[13] = intranasal 20 mg/kg/day, Day 1, Male
[14] = intranasal 20 mg/kg/day, Day 14, Female
[15] = intranasal 20 mg/kg/day, Day 14, Male
[16] = intranasal 75 mg/kg/day, Day 1, Female
[17] = intranasal 75 mg/kg/day, Day 1, Male
[18] = intranasal 75 mg/kg/day, Day 14, Female
[19] = intranasal 75 mg/kg/day, Day 14, Male

Chain of hERG potassium channel current (IKr) (Q12809 whole entry): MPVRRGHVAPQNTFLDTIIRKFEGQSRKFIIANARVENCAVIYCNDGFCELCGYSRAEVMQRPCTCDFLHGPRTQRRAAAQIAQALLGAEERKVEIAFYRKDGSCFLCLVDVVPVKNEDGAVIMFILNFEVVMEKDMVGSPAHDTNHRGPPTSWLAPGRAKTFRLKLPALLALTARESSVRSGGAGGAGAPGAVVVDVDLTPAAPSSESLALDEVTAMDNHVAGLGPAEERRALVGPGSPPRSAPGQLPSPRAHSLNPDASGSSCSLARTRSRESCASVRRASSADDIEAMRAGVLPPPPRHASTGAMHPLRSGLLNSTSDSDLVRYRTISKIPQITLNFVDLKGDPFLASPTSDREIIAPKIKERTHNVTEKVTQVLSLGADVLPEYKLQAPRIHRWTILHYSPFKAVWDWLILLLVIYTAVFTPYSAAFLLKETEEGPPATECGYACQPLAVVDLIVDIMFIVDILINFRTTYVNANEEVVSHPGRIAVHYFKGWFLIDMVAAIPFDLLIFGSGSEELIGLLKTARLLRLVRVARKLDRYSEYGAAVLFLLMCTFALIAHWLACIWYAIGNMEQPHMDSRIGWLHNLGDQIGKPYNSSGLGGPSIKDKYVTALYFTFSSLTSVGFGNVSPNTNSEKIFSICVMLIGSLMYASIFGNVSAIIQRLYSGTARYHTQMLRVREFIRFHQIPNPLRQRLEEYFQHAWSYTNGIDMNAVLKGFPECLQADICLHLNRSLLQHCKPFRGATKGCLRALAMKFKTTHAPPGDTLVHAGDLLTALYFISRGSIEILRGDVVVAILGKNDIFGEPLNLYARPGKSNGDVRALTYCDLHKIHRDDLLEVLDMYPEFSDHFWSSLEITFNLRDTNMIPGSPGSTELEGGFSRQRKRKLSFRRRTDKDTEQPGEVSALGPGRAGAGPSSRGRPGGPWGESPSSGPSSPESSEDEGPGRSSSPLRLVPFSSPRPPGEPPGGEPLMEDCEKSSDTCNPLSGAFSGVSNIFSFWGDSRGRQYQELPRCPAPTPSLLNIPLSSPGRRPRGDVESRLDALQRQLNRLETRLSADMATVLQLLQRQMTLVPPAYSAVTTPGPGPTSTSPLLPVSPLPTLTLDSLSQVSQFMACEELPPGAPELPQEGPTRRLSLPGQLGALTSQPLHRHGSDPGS

Structure (SMILES): COc1ccc2[nH]cc(CCN(C)C)c2c1 [Compound 5-MeO-DMT, 5-methoxy-N,N-dimethyltryptamine]
- Inhibition of hERG potassium ion current [1]: 77.8±7.4%
- AUC0-Tlast (Beagle dogs; [2]): 104 ng·h/mL
- AUCINF—obs (Beagle dogs; [2]): 106 ng·h/mL
- t1/2 (Beagle dogs; [2]): 18.7 min
- AUC0-Tlast (Beagle dogs; [3]): 77.9 ng·h/mL
- AUCINF—obs (Beagle dogs; [3]): 80.9 ng·h/mL
- t1/2 (Beagle dogs; [3]): 34.3 min
- AUC0-Tlast (Beagle dogs; [4]): 86.4 ng·h/mL
- AUCINF—obs (Beagle dogs; [4]): 95.9 ng·h/mL
- Cmax (Beagle dogs; [4]): 196 ng/mL
- AUC0-Tlast (Beagle dogs; [5]): 70.6 ng·h/mL
- AUCINF—obs (Beagle dogs; [5]): 77.7 ng·h/mL
- Cmax (Beagle dogs; [5]): 285 ng/mL
- AUC0-Tlast (Beagle dogs; [6]): 152 ng·h/mL
- Cmax (Beagle dogs; [6]): 300 ng/mL
- t1/2 (Beagle dogs; [6]): 35.7 min
- t1/2 (Beagle dogs; intranasal 0.8 mg/kg/day, Day 14, Female): 95.4 min
- AUC0-Tlast (Beagle dogs; [7]): 298 ng·h/mL
- AUCINF—obs (Beagle dogs; [7]): 322 ng·h/mL
- Cmax (Beagle dogs; [7]): 411 ng/mL
- t1/2 (Beagle dogs; [7]): 79.2 min
- AUC0-Tlast [SE] (Sprague Dawley rats; [8]): 53.2 [15.9] h*ng/mL
- AUCINF—obs (Sprague Dawley rats; [8]): (53.7) h*ng/mL
- Cmax [SE] (Sprague Dawley rats; [8]): 186 [98.7] ng/mL
- Tmax (Sprague Dawley rats; [8]): 9.96 min
- AUC0-Tlast [SE] (Sprague Dawley rats; [9]): 39.9 [7.35] h*ng/mL
- AUCINF—obs (Sprague Dawley rats; [9]): (40.1) h*ng/mL
- Cmax [SE] (Sprague Dawley rats; [9]): 191 [45.6] ng/mL
- AUC0-Tlast [SE] (Sprague Dawley rats; [10]): 63.8 [4.55] h*ng/mL
- AUCINF—obs (Sprague Dawley rats; [10]): (64.0) h*ng/mL
- Cmax [SE] (Sprague Dawley rats; [10]): 645 [106] ng/mL
- t1/2 (Sprague Dawley rats; [10]): 6.78 min
- AUC0-Tlast [SE] (Sprague Dawley rats; [11]): 114 [13.8] h*ng/mL
- AUCINF—obs (Sprague Dawley rats; [11]): (115) h*ng/mL
- Cmax [SE] (Sprague Dawley rats; [11]): 627 [102] ng/mL
- AUC0-Tlast [SE] (Sprague Dawley rats; [12]): 198 [15.2] h*ng/mL
- AUCINF—obs (Sprague Dawley rats; [12]): (198) h*ng/mL
- Cmax [SE] (Sprague Dawley rats; [12]): 679 [162] ng/mL
- AUC0-Tlast [SE] (Sprague Dawley rats; [13]): 420 [62.1] h*ng/mL
- AUCINF—obs (Sprague Dawley rats; [13]): (421) h*ng/mL
- Cmax [SE] (Sprague Dawley rats; [13]): 4190 [1040] ng/mL
- t1/2 (Sprague Dawley rats; [13]): 7.5 min
- AUC0-Tlast [SE] (Sprague Dawley rats; [14]): 169 [21.2] h*ng/mL
- AUCINF—obs (Sprague Dawley rats; [14]): (169) h*ng/mL
- Cmax [SE] (Sprague Dawley rats; [14]): 795 [115] ng/mL
- AUC0-Tlast [SE] (Sprague Dawley rats; [15]): 133 [57.2] h*ng/mL
- AUCINF—obs (Sprague Dawley rats; [15]): (133) h*ng/mL
- Cmax [SE] (Sprague Dawley rats; [15]): 1200 [857] ng/mL
- AUC0-Tlast [SE] (Sprague Dawley rats; [16]): 228 [49.7] h*ng/mL
- AUCINF—obs (Sprague Dawley rats; [16]): (228) h*ng/mL
- Cmax [SE] (Sprague Dawley rats; [16]): 1310 [802] ng/mL
- t1/2 (Sprague Dawley rats; [16]): 9.36 min
- AUC0-Tlast [SE] (Sprague Dawley rats; [17]): 1030 [114] h*ng/mL
- AUCINF—obs (Sprague Dawley rats; [17]): (1040) h*ng/mL
- Cmax [SE] (Sprague Dawley rats; [17]): 7010 [1010] ng/mL
- AUC0-Tlast [SE] (Sprague Dawley rats; [18]): 155 [53.8] h*ng/mL
- AUCINF—obs (Sprague Dawley rats; [18]): (156) h*ng/mL
- Cmax [SE] (Sprague Dawley rats; [18]): 870 [361] ng/mL
- t1/2 (Sprague Dawley rats; [18]): 7.8 min
- AUC0-Tlast [SE] (Sprague Dawley rats; [19]): 391 [228] h*ng/mL
- AUCINF—obs (Sprague Dawley rats; [19]): (392) h*ng/mL
- Cmax [SE] (Sprague Dawley rats; [19]): 3290 [2510] ng/mL
- t1/2 (Sprague Dawley rats; [19]): 6.96 min
